Source: patent US12268782B2, “Preparation method of fatty acid liposome for VC encapsulation” (Jiangnan University, priority 2020, dated 2025)

Assay: Degradation of VC in deionized water over time at different temperatures (FIG. 1)
Type: physicochemical
Source text: Vitamin C (VC), also known as L-ascorbic acid, is a main component of common food additives and cosmetics, and can serve as a vitamin supplement and an antioxidant in cosmetics. However, VC is very unstable in neutral or alkaline aqueous solutions.

degradation rate of VC (deionized water, 6 h, temperature higher than 50° C.): 80%
VC degrades (degradation) (initial concentration 0.27 mg/mL in deionized water, 25° C., after 12 h): 29%
SMILES: O=C1O[C@H]([C@@H](O)CO)C(O)=C1O [VC, L-ascorbic acid]
